Values after ≈ are worked out from the molar mass of the structure shown.
How the values were obtained:
Escherichia coli [1] = test: BActericidal activity against Escherichia coli BW25113 assessed as reduction in bacterial cell growth incubated for 18 to 20 hrs followed by re-plating on tryptic soy agar plates at 37 degC for 18 hrs by broth microdilution assay; type: functional
Escherichia coli [2] = test: Bactericidal activity against Escherichia coli JW55031 harboring deltatolC mutant assessed as reduction in bacterial cell growth incubated for 18 to 20 hrs followed by re-plating on tryptic soy agar plates at 37 degC for 18 hrs by broth microdilution assay; type: functional
Pseudomonas aeruginosa [3] = test: Antibacterial activity against Pseudomonas aeruginosa ATCC 15442 assessed as reduction in bacterial cell growth incubated for 18 to 20 hrs by broth microdilution method; type: functional
Acinetobacter baumannii [4] = test: Antibacterial activity against Acinetobacter baumannii ATCC 19606 assessed as reduction in bacterial cell growth incubated for 18 to 20 hrs by broth microdilution method; type: functional
Escherichia coli [5] = test: Antibacterial activity against Escherichia coli JW55031 harboring deltatolC mutant assessed as reduction in bacterial cell growth incubated for 18 to 20 hrs by broth microdilution method; type: functional
Pseudomonas aeruginosa [6] = test: Bactericidal activity against Pseudomonas aeruginosa ATCC 15442 assessed as reduction in bacterial cell growth incubated for 18 to 20 hrs followed by re-plating on tryptic soy agar plates at 37 degC for 18 hrs by broth microdilution assay; type: functional
Escherichia coli [7] = test: Antibacterial activity against Escherichia coli BW25113 assessed as reduction in bacterial cell growth incubated for 18 to 20 hrs by broth microdilution method; type: functional
Klebsiella pneumoniae [8] = test: Bactericidal activity against Klebsiella pneumoniae BAA-1706 assessed as reduction in bacterial cell growth incubated for 18 to 20 hrs followed by re-plating on tryptic soy agar plates at 37 degC for 18 hrs by broth microdilution assay; type: functional
Klebsiella pneumoniae [9] = test: Antibacterial activity against Klebsiella pneumoniae BAA-1706 assessed as reduction in bacterial cell growth incubated for 18 to 20 hrs by broth microdilution method; type: functional
Acinetobacter baumannii [10] = test: Bactericidal activity against Acinetobacter baumannii ATCC 19606 assessed as reduction in bacterial cell growth incubated for 18 to 20 hrs followed by re-plating on tryptic soy agar plates at 37 degC for 18 hrs by broth microdilution assay; type: functional
Staphylococcus aureus [11] = test: Antibacterial activity against methicillin resistant Staphylococcus aureus USA400 assessed as reduction in bacterial cell growth incubated for 18 to 20 hrs by broth microdilution method; type: functional
Staphylococcus aureus [12] = test: Bactericidal activity against vancomycin resistant Staphylococcus aureus VRS11a assessed as reduction in bacterial cell growth incubated for 18 to 20 hrs followed by re-plating on tryptic soy agar plates at 37 degC for 18 hrs by broth microdilution assay; type: functional
Streptococcus pneumoniae [13] = test: Bactericidal activity against Cephalosporin resistant Streptococcus pneumoniae ATCC 51916 assessed as reduction in bacterial cell growth incubated for 18 to 20 hrs followed by re-plating on tryptic soy agar plates at 37 degC for 18 hrs by broth microdilution assay; type: functional
Streptococcus pneumoniae [14] = test: Bactericidal activity against Methicillin resistant Streptococcus pneumoniae ATCC 700677 assessed as reduction in bacterial cell growth incubated for 18 to 20 hrs followed by re-plating on tryptic soy agar plates at 37 degC for 18 hrs by broth microdilution assay; type: functional
Listeria monocytogenes [15] = test: Bactericidal activity against Listeria monocytogenes ATCC 19111 assessed as reduction in bacterial cell growth incubated for 18 to 20 hrs followed by re-plating on tryptic soy agar plates at 37 degC for 18 hrs by broth microdilution assay; type: functional
Staphylococcus aureus [16] = test: Antibacterial activity against vancomycin resistant Staphylococcus aureus VRS12 assessed as reduction in bacterial cell growth incubated for 18 to 20 hrs by broth microdilution method; type: functional
Enterococcus faecium [17] = test: Bactericidal activity against vancomycin resistant Enterococcus faecium ATCC 700221 assessed as reduction in bacterial cell growth incubated for 18 to 20 hrs followed by re-plating on tryptic soy agar plates at 37 degC for 18 hrs by broth microdilution assay; type: functional
Staphylococcus aureus [18] = test: Antibacterial activity against Staphylococcus aureus ATCC 6538 assessed as reduction in bacterial cell growth incubated for 18 to 20 hrs by broth microdilution method; type: functional
Enterococcus faecalis [19] = test: Bactericidal activity against vancomycin resistant Enterococcus faecalis ATCC 51299 assessed as reduction in bacterial cell growth incubated for 18 to 20 hrs followed by re-plating on tryptic soy agar plates at 37 degC for 18 hrs by broth microdilution assay; type: functional
Staphylococcus aureus [20] = test: Antibacterial activity against vancomycin resistant Staphylococcus aureus VRS10 assessed as reduction in bacterial cell growth incubated for 18 to 20 hrs by broth microdilution method; type: functional
Staphylococcus aureus [21] = test: Bactericidal activity against Staphylococcus aureus ATCC 6538 assessed as reduction in bacterial cell growth incubated for 18 to 20 hrs followed by re-plating on tryptic soy agar plates at 37 degC for 18 hrs by broth microdilution assay; type: functional
[22] = Solubility of compound in PBS after 2 hrs by turbidity based absorbance analysis; type: physicochemical
Staphylococcus aureus [23] = test: Bactericidal activity against vancomycin resistant Staphylococcus aureus VRS10 assessed as reduction in bacterial cell growth incubated for 18 to 20 hrs followed by re-plating on tryptic soy agar plates at 37 degC for 18 hrs by broth microdilution assay; type: functional
Staphylococcus aureus [24] = test: Antibacterial activity against vancomycin resistant Staphylococcus aureus VRS11a assessed as reduction in bacterial cell growth incubated for 18 to 20 hrs by broth microdilution method; type: functional
Staphylococcus aureus [25] = test: Antibacterial activity against methicillin-resistant Staphylococcus aureus USA300 assessed as reduction in bacterial cell growth incubated for 18 to 20 hrs by broth microdilution method; type: functional
Enterococcus faecalis [26] = test: Antibacterial activity against vancomycin resistant Enterococcus faecalis ATCC 51299 assessed as reduction in bacterial cell growth incubated for 18 to 20 hrs by broth microdilution method; type: functional
Staphylococcus aureus [27] = test: Antibacterial activity against methicillin resistant Staphylococcus aureus NRS119 assessed as reduction in bacterial cell growth incubated for 18 to 20 hrs by broth microdilution method; type: functional
Staphylococcus aureus [28] = test: Antibacterial activity against Staphylococcus aureus NRS107 assessed as reduction in bacterial cell growth incubated for 18 to 20 hrs by broth microdilution method; type: functional
[29] = system: Staphylococcus epidermidis; test: Bactericidal activity against methicillin resistant Staphylococcus epidermidis NRS101 assessed as reduction in bacterial cell growth incubated for 18 to 20 hrs followed by re-plating on tryptic soy agar plates at 37 degC for 18 hrs by broth microdilution assay; type: functional
Staphylococcus aureus [30] = test: Bactericidal activity against Staphylococcus aureus NRS107 assessed as reduction in bacterial cell growth incubated for 18 to 20 hrs followed by re-plating on tryptic soy agar plates at 37 degC for 18 hrs by broth microdilution assay; type: functional
Staphylococcus aureus [31] = test: Bactericidal activity against vancomycin resistant Staphylococcus aureus VRS12 assessed as reduction in bacterial cell growth incubated for 18 to 20 hrs followed by re-plating on tryptic soy agar plates at 37 degC for 18 hrs by broth microdilution assay; type: functional
Staphylococcus aureus [32] = test: Bactericidal activity against methicillin resistant Staphylococcus aureus NRS119 assessed as reduction in bacterial cell growth incubated for 18 to 20 hrs followed by re-plating on tryptic soy agar plates at 37 degC for 18 hrs by broth microdilution assay; type: functional
[33] = system: Staphylococcus epidermidis; test: Antibacterial activity against methicillin resistant Staphylococcus epidermidis NRS101 assessed as reduction in bacterial cell growth incubated for 18 to 20 hrs by broth microdilution method; type: functional
Streptococcus pneumoniae [34] = test: Antibacterial activity against Cephalosporin resistant Streptococcus pneumoniae ATCC 51916 assessed as reduction in bacterial cell growth incubated for 18 to 20 hrs by broth microdilution method; type: functional
Streptococcus pneumoniae [35] = test: Antibacterial activity against Methicillin resistant Streptococcus pneumoniae ATCC 700677 assessed as reduction in bacterial cell growth incubated for 18 to 20 hrs by broth microdilution method; type: functional
Staphylococcus aureus [36] = test: Bactericidal activity against methicillin-resistant Staphylococcus aureus USA300 assessed as reduction in bacterial cell growth incubated for 18 to 20 hrs followed by re-plating on tryptic soy agar plates at 37 degC for 18 hrs by broth microdilution assay; type: functional
J774 = test: Cytotoxicity against mouse J774 assessed as reduction in cell viability at 16 ug/ml incubated for 24 hrs by MTS assay; type: cell-based; details: j774, 24 h
Enterococcus faecium [37] = test: Antibacterial activity against vancomycin resistant Enterococcus faecium ATCC 700221 assessed as reduction in bacterial cell growth incubated for 18 to 20 hrs by broth microdilution method; type: functional
Listeria monocytogenes [38] = test: Antibacterial activity against Listeria monocytogenes ATCC 19111 assessed as reduction in bacterial cell growth incubated for 18 to 20 hrs by broth microdilution method; type: functional

CC[C@H]1OC(=O)[C@H](C)[C@@H](O[C@H]2C[C@@](C)(OC)[C@@H](O)[C@H](C)O2)[C@H](C)[C@@H](O[C@@H]2O[C@H](C)C[C@H](N(C)C)[C@H]2O)[C@](C)(O)C[C@@H](C)C(=O)[C@H](C)[C@@H](O)[C@]1(C)O [ERYTHROMYCIN]
MBC (Escherichia coli [1]): > 64 µg/mL | MBC (Escherichia coli [2]): 2 µg/mL (≈ 2.73 µM) | MIC (Pseudomonas aeruginosa [3]): > 64 µg/mL | MIC (Acinetobacter baumannii [4]): 8 µg/mL (≈ 10.9 µM) | MIC (Escherichia coli [5]): 1 µg/mL (≈ 1.36 µM) | MBC (Pseudomonas aeruginosa [6]): > 64 µg/mL | MIC (Escherichia coli [7]): 32 µg/mL (≈ 43.6 µM) | MBC (Klebsiella pneumoniae [8]): > 64 µg/mL | MIC (Klebsiella pneumoniae [9]): 64 µg/mL (≈ 87.2 µM) | MBC (Acinetobacter baumannii [10]): 16 µg/mL (≈ 21.8 µM)

C/C(=N\NC(=N)N)c1sc(-c2ccc(C#Cc3ccc(C(N)=S)cc3)cc2)nc1C
MIC (Staphylococcus aureus [11]): 64 µg/mL (≈ 148 µM)

C/C(=N\NC(=N)N)c1sc(-c2ccc(C#Cc3cccs3)cc2)nc1C
MBC (Staphylococcus aureus [12]): 2 µg/mL (≈ 5.27 µM) | MBC (Streptococcus pneumoniae [13]): 4 µg/mL (≈ 10.5 µM) | MBC (Escherichia coli [1]): > 64 µg/mL | MBC (Streptococcus pneumoniae [14]): 8 µg/mL (≈ 21.1 µM) | MBC (Escherichia coli [2]): > 64 µg/mL | MBC (Listeria monocytogenes [15]): 32 µg/mL (≈ 84.3 µM) | MIC (Staphylococcus aureus [16]): 8 µg/mL (≈ 21.1 µM) | MBC (Enterococcus faecium [17]): 8 µg/mL (≈ 21.1 µM) | MIC (Staphylococcus aureus [18]): 1 µg/mL (≈ 2.63 µM) | MIC (Pseudomonas aeruginosa [3]): > 64 µg/mL | MBC (Enterococcus faecalis [19]): > 64 µg/mL | MIC (Staphylococcus aureus [20]): 8 µg/mL (≈ 21.1 µM) | MBC (Staphylococcus aureus [21]): 2 µg/mL (≈ 5.27 µM) | MIC (Acinetobacter baumannii [4]): > 64 µg/mL | solubility kinetic at 2 h [22]: 50 µM (≈ 19 µg/mL) | MBC (Staphylococcus aureus [23]): 16 µg/mL (≈ 42.2 µM) | MIC (Staphylococcus aureus [24]): 1 µg/mL (≈ 2.63 µM) | MIC (Staphylococcus aureus [25]): 4 µg/mL (≈ 10.5 µM) | MIC (Enterococcus faecalis [26]): 64 µg/mL (≈ 169 µM) | MIC (Escherichia coli [5]): 64 µg/mL (≈ 169 µM) | MIC (Staphylococcus aureus [27]): 2 µg/mL (≈ 5.27 µM) | MBC (Pseudomonas aeruginosa [6]): > 64 µg/mL | MIC (Staphylococcus aureus [28]): 2 µg/mL (≈ 5.27 µM) | MBC [29]: 1 µg/mL (≈ 2.63 µM) | MIC (Escherichia coli [7]): > 64 µg/mL | MBC (Staphylococcus aureus [30]): 4 µg/mL (≈ 10.5 µM) | MBC (Staphylococcus aureus [31]): 16 µg/mL (≈ 42.2 µM) | MBC (Staphylococcus aureus [32]): 4 µg/mL (≈ 10.5 µM) | MIC [33]: 1 µg/mL (≈ 2.63 µM) | MIC (Streptococcus pneumoniae [34]): 4 µg/mL (≈ 10.5 µM) | MIC (Streptococcus pneumoniae [35]): 4 µg/mL (≈ 10.5 µM) | MBC (Staphylococcus aureus [36]): 8 µg/mL (≈ 21.1 µM) | Activity (J774): Toxic | MIC (Staphylococcus aureus [11]): 2 µg/mL (≈ 5.27 µM) | MBC (Klebsiella pneumoniae [8]): > 64 µg/mL | MIC (Enterococcus faecium [37]): 4 µg/mL (≈ 10.5 µM) | MIC (Klebsiella pneumoniae [9]): > 64 µg/mL | MBC (Acinetobacter baumannii [10]): > 64 µg/mL | MIC (Listeria monocytogenes [38]): 8 µg/mL (≈ 21.1 µM)

COc1cccc(C#Cc2ccc(-c3nc(C)c(/C(C)=N/NC(=N)N)s3)cc2)c1
MIC (Staphylococcus aureus [11]): 4 µg/mL (≈ 9.91 µM)

C/C(=N\NC(=N)N)c1sc(-c2ccc(C#Cc3ccsc3)cc2)nc1C
MIC (Staphylococcus aureus [11]): > 64 µg/mL

C/C(=N\NC(=N)N)c1sc(-c2ccc(C#Cc3ccoc3)cc2)nc1C
MIC (Staphylococcus aureus [11]): 4 µg/mL (≈ 11 µM)

COLISTIN
MBC (Escherichia coli [1]): < 0.5 µg/mL | MBC (Escherichia coli [2]): < 0.5 µg/mL | MIC (Pseudomonas aeruginosa [3]): 1 µg/mL | MIC (Acinetobacter baumannii [4]): < 0.5 µg/mL | MIC (Escherichia coli [5]): < 0.5 µg/mL | MBC (Pseudomonas aeruginosa [6]): 1 µg/mL | MIC (Escherichia coli [7]): < 0.5 µg/mL | MBC (Klebsiella pneumoniae [8]): < 0.5 µg/mL | MIC (Klebsiella pneumoniae [9]): < 0.5 µg/mL | MBC (Acinetobacter baumannii [10]): < 0.5 µg/mL

COC(=O)c1ccc(C#Cc2ccc(-c3nc(C)c(/C(C)=N/NC(=N)N)s3)cc2)c(C)c1
MIC (Staphylococcus aureus [11]): > 64 µg/mL
